This is an account of results in patent US8563706B2, “Efficient cell culture system for hepatitis C virus genotype 1A and 1B” (priority 2007, dated 2013).

The subject of test [1] is JFH1 cultures or cultures with genotype 1a (H77), 1b (Con1) or 2a (J6) JFH1-based recombinants. As to conditions: previous studies; cited from earlier work.
Test [2] deals with JFH1-based recombinants of genotypes 1a, 1b, 2a, 2b, and 6a. The format is cell-based, hepatitis C virus.
Test [3] relates to J6/JFH. As to conditions: previous studies; cited from earlier work.

As to `NC12CC3CC(CC(C3)C1)C2` [amantadine], the “production of infectious virus (in words)” value in test [1] was “did not decrease production of infectious virus”. In addition, the “effect of treatment on infected cells and supernatant HCV RNA titers (in words)” value in test [2] is “no apparent effect”.
Turning to `NC(=O)c1ncn([C@@H]2O[C@H](CO)[C@@H](O)[C@H]2O)n1` [ribavirin], the “production of infectious virus (in words)” value in test [1] was “did not decrease production of infectious virus”. The “effect of treatment on infected cells and supernatant HCV RNA titers (in words)” value in test [2] is listed as “no apparent effect”.
On to interferon-α2b, for which, in test [3], the “replication of J6/JFH (in words)” value is given as “decreased replication”. In addition, in test [2], the “decrease in supernatant HCV RNA titers” value was roughly 2 log and the “decrease in the number of infected cells” value was greater than 60%.
